Source: ChEMBL document CHEMBL1153460, “Potent aza-peptide derived inhibitors of HCV NS3 protease” (Bioorg Med Chem Lett, 2009)
The source made the active and inactive calls. The rule behind the calls is not given here. Starred links: 1 amine or outer side, 2 acyl side, 3 side chain; linkers in the order of their positions; H or OH if unused. Non-standard residues stand in square brackets, D forms with d. Residues, ends and D or L forms follow the SMILES beside them. *: point of attachment. Pro(4R-OPh) = O=C(O)[C@@H]1C[C@@H](Oc2ccccc2)CN1; NH(1R-phenylethyl) = C[C@@H](N*)c1ccccc1; azaNva = CCCN(N[*:1])C(=O)[*:2]; Aad = N[C@@H](CCCC(=O)O)C(=O)O; Tle = CC(C)(C)[C@H](N)C(=O)O

Experiments:
[1] = Inhibition of HCV NS3 protease by continuous spectrophotometric assay; set-up: species or system Hepacivirus hominis
[2] = system: Hepatitis C virus; assay: Antiviral activity against HCV by replicon-based cellular assay; assay type: functional
[3] = Selectivity ratio, Ki for human neutrophil elastase to Ki for HCV NS3 protease

Ki [1] | EC90 ([2]; Hepacivirus hominis) | EC90 [2] | Ratio Ki [3] | Compound
200 nM | inactive | – | – | C[C@@H](NC(=O)N(CC1CC1)NC(=O)[C@@H]1[C@@H]2[C@H](CN1C(=O)[C@@H](NC(=O)N[C@H](CN1C(=O)CC(C)(C)CC1=O)C(C)(C)C)C(C)(C)C)C2(C)C)c1ccccc1
78 nM | – | – | – | CCCN(NC(=O)[C@@H]1C[C@@H](Oc2ccccc2)CN1C(=O)[C@@H](NC(=O)[C@@H](NC(=O)[C@H](CCCC(=O)O)NC(=O)[C@H](CCCC(=O)O)NC(C)=O)C(C)C)C(C)(C)C)C(=O)N[C@H](C)c1ccccc1 (Ac-[Aad][Aad]V[Tle][Pro(4R-OPh)][azaNva]-{NH(1R-phenylethyl)})
750 nM | – | 6000 nM | – | CCCN(NC(=O)[C@@H]1[C@@H]2[C@H](CN1C(=O)[C@@H](NC(=O)N[C@H](CN1C(=O)C3CCC(C3)C1=O)C(C)(C)C)C(C)(C)C)C2(C)C)C(=O)NC1CC1
720 nM | – | 3500 nM | – | CCCN(NC(=O)[C@@H]1[C@@H]2[C@H](CN1C(=O)[C@@H](NC(=O)N[C@H](CN1C(=O)C3CCC(C3)C1=O)C(C)(C)C)C(C)(C)C)C2(C)C)C(=O)CCc1ccccc1
110 nM | – | 700 nM | – | CCCN(NC(=O)[C@@H]1[C@@H]2[C@H](CN1C(=O)[C@@H](NC(=O)N[C@H](CN(C)S(C)(=O)=O)C(C)(C)C)C(C)(C)C)C2(C)C)C(=O)N[C@H](C)c1ccccc1
64 nM | – | 300 nM | 960 | CCCN(NC(=O)[C@@H]1[C@@H]2[C@H](CN1C(=O)[C@@H](NC(=O)N[C@H](CN1C(=O)CC(C)(C)CC1=O)C(C)(C)C)C(C)(C)C)C2(C)C)C(=O)N[C@H](C)c1ccccc1
3000 nM | – | 15000 nM | – | CCCN(NC(=O)[C@@H]1[C@@H]2[C@H](CN1C(=O)[C@@H](NC(=O)N[C@H](CN1C(=O)C3CCC(C3)C1=O)C(C)(C)C)C(C)(C)C)C2(C)C)C(=O)C1CC1
1600 nM | – | 8000 nM | – | CCCN(NC(=O)[C@@H]1[C@@H]2[C@H](CN1C(=O)[C@@H](NC(=O)N[C@H](CN1C(=O)C3CCC(C3)C1=O)C(C)(C)C)C(C)(C)C)C2(C)C)C(=O)NC(C)(C)C
950 nM | – | 2400 nM | – | CCCN(NC(=O)[C@@H]1[C@@H]2[C@H](CN1C(=O)[C@@H](NC(=O)N[C@H](CN1C(=O)C3CCC(C3)C1=O)C(C)(C)C)C(C)(C)C)C2(C)C)C(=O)Nc1ccccc1
22000 nM | inactive | – | – | CCCN(NC(=O)[C@@H]1[C@@H]2[C@H](CN1C(=O)[C@@H](NC(=O)N[C@H](CN1C(=O)C3CCC(C3)C1=O)C(C)(C)C)C(C)(C)C)C2(C)C)C(C)=O
32 nM | – | 250 nM | – | CCCN(NC(=O)[C@@H]1[C@@H]2[C@H](CN1C(=O)[C@@H](NC(=O)N[C@H](CN1C(=O)C3CCC(C3)C1=O)C(C)(C)C)C(C)(C)C)C2(C)C)C(=O)N[C@H](C)c1ccccc1
250 nM | – | 1100 nM | – | C[C@@H](NC(=O)N(CC1CC1)NC(=O)[C@@H]1[C@@H]2[C@H](CN1C(=O)[C@@H](NC(=O)N[C@H](CN1C(=O)C3CCC(C3)C1=O)C(C)(C)C)C(C)(C)C)C2(C)C)c1ccccc1
14 nM | – | 350 nM | 2200 | CC(C)(C)NC(=O)N[C@H](C(=O)N1C[C@H]2[C@@H]([C@H]1C(=O)NC(CC1CCC1)C(=O)C(N)=O)C2(C)C)C(C)(C)C (stereo not given in full) [BOCEPREVIR]
230 nM | inactive | – | – | CCCN(NC(=O)[C@@H]1[C@@H]2[C@H](CN1C(=O)[C@@H](NC(=O)N[C@H](CN(C)S(=O)(=O)c1cccnc1)C(C)(C)C)C1CCCCC1)C2(C)C)C(=O)N[C@H](C)c1ccccc1
52000 nM | inactive | – | – | CCCN(NC(=O)[C@@H]1[C@@H]2[C@H](CN1C(=O)[C@@H](NC(=O)N[C@H](CN1C(=O)C3CCC(C3)C1=O)C(C)(C)C)C(C)(C)C)C2(C)C)C(=O)c1ccccc1
3100 nM | – | 24000 nM | – | CCCN(NC(=O)[C@@H]1[C@@H]2[C@H](CN1C(=O)[C@@H](NC(=O)N[C@H](CN1C(=O)C3CCC(C3)C1=O)C(C)(C)C)C(C)(C)C)C2(C)C)C(=O)OC(C)(C)C
1300 nM | – | 16000 nM | – | CCCN(NC(=O)[C@@H]1[C@@H]2[C@H](CN1C(=O)[C@@H](NC(=O)N[C@H](CN1C(=O)C3CCC(C3)C1=O)C(C)(C)C)C(C)(C)C)C2(C)C)C(=O)NC1CCCCC1
